Target: T1, vanilloid receptor (Rattus norvegicus, UniProt O35433)
T1 construct: DRG nerve cells from the primary culture of 2 days were equilibrated; endogenous in cells; host or cells: primary culture of dorsal root ganglion neurons from neonatal SD rats
Assay: 45Ca influx test (antagonist calcium uptake test) in rat DRG neurons stimulated with capsaicin
Assay type: cell-based
Conditions: DRG neuron; @3 μM; neonatal SD rat DRG neurons; capsaicin 0.5 μM; read-out: Antagonist Calcium Uptake Test, percent inhibition of capsaicin response
Method: 1) Separation of spinal dorsal root ganglia (DRG) in newborn rats and primary culture thereof
Neonatal (2-3 clay old or younger than 2-3 day old) SD rats were put in ice for 5 minutes to anesthetize and disinfected with 70% ethanol. DRG of all part of spinal cord were dissected (Wood et al., 1988, J. Neurosci. 8, pp 3208-3220) and collected in DME/F12 medium to which 1.2 g/l sodium bicarbonate and 50 mg/l gentamycin were added. The DRG were incubated sequentially at 37° C. for 30 mins in 200 U/ml collagenase and 2.5 mg/ml trypsin, separately. The ganglia were washed twice with DME/F12 medium supplemented with 10% horse serum, triturated through a fire-polished Pasteur pipette, filtered through Nitex 80 membrane to obtain single cell suspension and the suspension was washed once more. This was subjected to centrifugation, then resuspended in cell culture medium at certain level of cell density. As the cell culture medium, DME/F12 medium supplemented with 10% horse serum was diluted with identical medium conditioned by C6 glioma cells 2 clays on a confluent monolayer (1:1), and NGF (Nerve Growth Factor) was added to adjust 200 ng/ml as final concentration. After the cells were grown 2 days in medium where cytosine arabinoside (Ara-C, 100 μM) was added to kill dividing nonneuronal cells, medium was changed to one without Ara-C. The resuspended cells were plated at a density of 1500-2000 neurons/well onto Terasaki plates previously coated with 10 μg/ml poly-D-ornithine.
2) ^45Ca Influx Experiments
DRG nerve cells from the primary culture of 2 days were equilibrated by washing 4 times with HEPES (10 mM, pH 7.4)-buffered Ca^2+, Mg^2+-free HBSS (H-HBSS). The solution in each well was removed from the individual well. Medium containing the test compound plus capsaicin (final concentration 0.5 μM) and ^45Ca (final concentration 10 μCi/ml) in H-HBSS was added to each well and incubated at room temperature for 10 nuns. Terasaki plates were washed five times with H-HBSS and dried at room temperature. To each well, 0.3% SDS (10 μl) was added to elute ^45Ca. After the addition of scintillation cocktail of into each well, the amount of ^45Ca influx into neuron was measured by counting radioactivity. Antagonistic activities of test compounds against vanilloid receptor were calculated as percent of the inhibition of maximal response of capsaicin at a concentration of 0.5 μM.

T1 sequence (O35433 whole entry): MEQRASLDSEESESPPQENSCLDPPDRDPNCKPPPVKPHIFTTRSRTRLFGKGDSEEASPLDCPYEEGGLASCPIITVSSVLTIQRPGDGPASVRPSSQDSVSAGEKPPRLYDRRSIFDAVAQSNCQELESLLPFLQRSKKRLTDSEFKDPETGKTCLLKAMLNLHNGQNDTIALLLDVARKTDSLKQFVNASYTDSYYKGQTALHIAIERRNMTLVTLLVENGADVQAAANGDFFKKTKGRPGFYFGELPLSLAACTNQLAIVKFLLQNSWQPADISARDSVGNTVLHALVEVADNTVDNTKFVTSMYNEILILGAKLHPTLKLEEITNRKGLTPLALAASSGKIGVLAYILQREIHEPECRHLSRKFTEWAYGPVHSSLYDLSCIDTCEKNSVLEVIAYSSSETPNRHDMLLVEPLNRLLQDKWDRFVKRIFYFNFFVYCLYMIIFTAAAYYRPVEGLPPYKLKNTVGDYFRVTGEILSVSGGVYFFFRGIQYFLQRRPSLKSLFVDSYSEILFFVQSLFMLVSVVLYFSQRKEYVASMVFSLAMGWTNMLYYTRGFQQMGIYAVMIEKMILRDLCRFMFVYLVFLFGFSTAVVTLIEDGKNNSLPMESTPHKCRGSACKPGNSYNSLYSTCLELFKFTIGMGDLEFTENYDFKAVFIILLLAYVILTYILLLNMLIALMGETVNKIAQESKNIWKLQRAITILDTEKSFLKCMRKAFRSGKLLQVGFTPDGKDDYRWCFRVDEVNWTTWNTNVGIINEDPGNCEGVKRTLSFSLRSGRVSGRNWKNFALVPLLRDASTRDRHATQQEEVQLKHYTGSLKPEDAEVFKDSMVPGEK

inhibition at 3 µM [%] | SMILES
89 | C[C@@H](NC(=O)c1coc(-c2ccc(C(F)(F)F)cc2)n1)c1cc(F)c(NS(C)(=O)=O)c(F)c1 [Example 74, 2-(4-Trifluoromethyl-phenyl)-oxazole-4-carboxylic acid [1-(3,5-difluoro-4-methanesulfonylamino-phenyl)-ethyl]-amide]

Same assay, conditions: neonatal SD rat DRG neurons; capsaicin 0.5 μM; 45Ca

SMILES | IC50 [µM]
CS(=O)(=O)Nc1c(F)cc(CNC(=O)c2ccc(-c3ccc(C(F)(F)F)cc3)s2)cc1F [Example 60, 5-(4-Trifluoromethyl-phenyl)-thiophene-2-carboxylic acid 3,5-difluoro-4-methanesulfonylamino-benzylamide] | 6.1
CS(=O)(=O)Nc1c(F)cc(CNC(=O)c2cc(-c3ccc(Br)cc3)oc2C(F)(F)F)cc1F [Example 61, 5-(4-Bromo-phenyl)-2-trifluoromethyl-furan-3-carboxylic acid 3,5-difluoro-4-methanesulfonylamino-benzylamide] | 2.8
C[C@@H](NC(=O)c1cc(-c2ccc(Br)cc2)oc1C(F)(F)F)c1cc(F)c(NS(C)(=O)=O)c(F)c1 [Example 62, 5-(4-Bromo-phenyl)-2-trifluoromethyl-furan-3-carboxylic acid [1-(3,5-difluoro-4-methanesulfonylamino-phenyl)-ethyl]-amide] | 0.44
CC(C)(C)c1ccc(-c2ccc(C(=O)NCc3cc(F)c(NS(C)(=O)=O)c(F)c3)s2)cc1 [Example 63, 5-(4-tert-Butyl-phenyl)-thiophene-2-carboxylic acid 3,5-difluoro-4-methanesulfonylamino-benzylamide] | > 10
CCOc1cccc(-c2ccc(C(=O)NCc3cc(F)c(NS(C)(=O)=O)c(F)c3)s2)c1 [Example 64, 5-(3-Ethoxy-phenyl)-thiophene-2-carboxylic acid 3,5-difluoro-4-methanesulfonylamino-benzylamide] | 4.1
CS(=O)(=O)Nc1c(F)cc(CNC(=O)c2ccc(-c3cccc(C(F)(F)F)c3)s2)cc1F [Example 65, 5-(3-Trifluoromethyl-phenyl)-thiophene-2-carboxylic acid 3,5-difluoro-4-methanesulfonylamino-benzylamide] | 2.7
CCCCOc1ccccc1-c1nc(C(=O)N[C@H](C)c2cc(F)c(NS(C)(=O)=O)c(F)c2)co1 [Example 66, 2-(2-Butoxy-phenyl)-oxazole-4-carboxylic acid [1-(3,5-difluoro-4-methanesulfonylamino-phenyl)-ethyl]-amide] | 0.75
C[C@@H](NC(=O)c1coc(-c2cccc(-c3ccccc3)c2)n1)c1cc(F)c(NS(C)(=O)=O)c(F)c1 [Example 70, 2-Biphenyl-3-yl-oxazole-4-carboxylic acid [1-(3,5-difluoro-4-methanesulfonylamino-phenyl)-ethyl]-amide] | 0.87
CCCOc1cccc(-c2nc(C(=O)N[C@H](C)c3cc(F)c(NS(C)(=O)=O)c(F)c3)co2)c1 [Example 71, 2-(3-Propoxy-phenyl)-oxazole-4-carboxylic acid [1-(3,5-difluoro-4-methanesulfonylamino-phenyl)-ethyl]-amide] | 1.2
CC(C)c1cccc(-c2ccc(C(=O)N[C@H](C)c3cc(F)c(NS(C)(=O)=O)c(F)c3)s2)c1 [Example 72, 5-(3-Isopropyl-phenyl)-thiophene-2-carboxylic acid [1-(3,5-difluoro-4-methanesulfonylamino-phenyl)-ethyl]-amide] | 1.4
C[C@@H](NC(=O)c1coc(-c2ccc(C(C)(C)C)cc2)n1)c1cc(F)c(NS(C)(=O)=O)c(F)c1 [Example 75, 2-(4-tort-Butyl-phenyl)-oxazole-4-carboxylic acid [1-(3,5-difluoro-4-methanesulfonylamino-phenyl)-ethyl]-amide] | 2.4
CC(=O)c1cccc(-c2nc(C(=O)N[C@H](C)c3cc(F)c(NS(C)(=O)=O)c(F)c3)co2)c1 [Example 76, 2-(3-Acetyl-phenyl)-oxazole-4-carboxylic acid [1-(3,5-difluoro-4-methanesulfonylamino-phenyl)-ethyl]-amide] | > 10
C[C@@H](NC(=O)c1coc(-c2ccc(-c3ccccc3)cc2)n1)c1cc(F)c(NS(C)(=O)=O)c(F)c1 [Example 78, 2-Biphenyl-4-yl-oxazole-4-carboxylic acid [1-(3,5-difluoro-4-methanesulfonylamino-phenyl)-ethyl]-amide] | > 10
C[C@@H](NC(=O)c1coc(-c2cc(Cl)cc(Cl)c2)n1)c1cc(F)c(NS(C)(=O)=O)c(F)c1 [Example 83, 2-(3,5-Dichloro-phenyl)-oxazole-4-carboxylic acid [1-(3,5-difluoro-4-methanesulfonylamino-phenyl)-ethyl]-amide] | 0.88
C[C@@H](NC(=O)c1coc(-c2cccc(Cl)c2Cl)n1)c1cc(F)c(NS(C)(=O)=O)c(F)c1 [Example 85, 2-(2,3-Dichloro-phenyl)-oxazole-4-carboxylic acid [1-(3,5-difluoro-4-methanesulfonylamino-phenyl)-ethyl]-amide] | 1.2
C[C@@H](NC(=O)c1coc(-c2cccc3ccccc23)n1)c1cc(F)c(NS(C)(=O)=O)c(F)c1 [Example 88, 2-Naphthalen-1-yl-oxazole-4-carboxylic acid [1-(3,5-difluoro-4-methanesulfonylamino-phenyl)-ethyl]-amide] | 0.72

Second part, the compound after the results:

IC50 [µM] | SMILES
1.8 | CC(C)c1ccc(I)c(Oc2nc(C(=O)N[C@H](C)c3cc(F)c(NS(C)(=O)=O)c(F)c3)co2)c1 [Example 52, 2-(2-Iodo-5-isopropyl-phenoxy)-oxazole-4-carboxylic acid [1-(3,5-difluoro-4-methanesulfonylamino-phenyl)-ethyl]-amide]
0.72 | C[C@@H](NC(=O)c1coc(Oc2cc(C(F)(F)F)ccc2Cl)n1)c1cc(F)c(NS(C)(=O)=O)c(F)c1 [Example 53, 2-(2-Chloro-5-trifluoromethyl-phenoxy)-oxazole-4-carboxylic acid [1-(3,5-difluoro-4-methanesulfonylamino-phenyl)-ethyl]-amide]
2.9 | C[C@@H](NC(=O)c1coc(Oc2cc(C(F)(F)F)ccc2C2CC2)n1)c1cc(F)c(NS(C)(=O)=O)c(F)c1 [Example 54, 2-(2-Cyclopropyl-5-trifluoromethyl-phenoxy)-oxazole-4-carboxylic acid [1-(3,5-difluoro-4-methanesulfonylamino-phenyl)-ethyl]-amide]
0.56 | C[C@@H](NC(=O)c1coc(Oc2cccc(C3CCC3)c2)n1)c1cc(F)c(NS(C)(=O)=O)c(F)c1 [Example 56, 2-(3-Cyclobutyl-phenoxy)-oxazole-4-carboxylic acid [1-(3,5-difluoro-4-methanesulfonylamino-phenyl)-ethyl]-amide]
0.093 | C[C@@H](NC(=O)c1coc(Oc2cccc(I)c2)n1)c1cc(F)c(NS(C)(=O)=O)c(F)c1 [Example 58, 2-(3-Iodo-phenoxy)-oxazole-4-carboxylic acid [1-(3,5-difluoro-4-methanesulfonylamino-phenyl)-ethyl]-amide]
1 | CC(C)c1cccc(Oc2ccc(C(=O)N[C@H](C)c3cc(F)c(NS(C)(=O)=O)c(F)c3)o2)c1 [Example 59, 5-(3-Isopropyl-phenoxy)-furan-2-carboxylic acid [1-(3,5-difluoro-4-methanesulfonylamino-phenyl)-ethyl]-amide]
2 | COc1ccc(C(C)C)cc1-c1nc(C(=O)N[C@H](C)c2cc(F)c(NS(C)(=O)=O)c(F)c2)co1 [Example 77, 2-(5-Isopropyl-2-methoxy-phenyl)-oxazole-4-carboxylic acid [1-(3,5-difluoro-4-methanesulfonylamino-phenyl)-ethyl]-amide]
1 | C[C@@H](NC(=O)c1coc(-c2cccc(N(C)C)c2)n1)c1cc(F)c(NS(C)(=O)=O)c(F)c1 [Example 81, 2-(3-Dimethylamino-phenyl)-oxazole-4-carboxylic acid [1-(3,5-difluoro-4-methanesulfonylamino-phenyl)-ethyl]-amide]
0.65 | C[C@@H](NC(=O)c1coc(-c2cccc(Cl)c2)n1)c1cc(F)c(NS(C)(=O)=O)c(F)c1 [Example 82, 2-(3-Chloro-phenyl)-oxazole-4-carboxylic acid [1-(3,5-difluoro-4-methanesulfonylamino-phenyl)-ethyl]-amide]
1 | C[C@@H](NC(=O)c1coc(-c2ccc(Cl)c(Cl)c2)n1)c1cc(F)c(NS(C)(=O)=O)c(F)c1 [Example 86, 2-(3,4-Dichloro-phenyl)-oxazole-4-carboxylic acid [1-(3,5-difluoro-4-methanesulfonylamino-phenyl)-ethyl]-amide]

— patent publication US8691855B2, “Compounds, isomer thereof, or pharmaceutically acceptable salts thereof as vanilloid receptor antagonist and pharmaceutical compositions containing the same” (Amorepacific Corporation, priority 2008, dated 2014)
